Data reported in ChEMBL document CHEMBL5728197, “KDM1A inhibitors for the treatment of disease” (2021).
pIC50: −log10 of the molar value.

Target: Lysine-specific histone demethylase 1A (Homo sapiens, UniProt O60341)
Experiment: Biological Activity Assay: Assaying the inhibition of KDM1A can be determined in vitro, in cultured cells, and in animals. There are a variety of spectrophotometric methods to detect the results of demethylation of methylated lysines, viz., detecting the products of KDM1A demethylase oxidative activity on a peptide fragment of at least 18 amino acid representing the N-terminus of the histone H3 substrate that contains a monomethyl at the fourth lysine residue. Hydrogen peroxide, one product of the KDM1A demethylase reaction, reacts with horseradish peroxidase and dihydroxyphenoxazine (ADHP) to produce the fluorescent compound resorufin (excitation=530-560 nm:emission=590 nm). The KDM1A demethylase enzyme activity can obtained from mammalian cells or tissues expressing KDM1A from an endogenous or recombinant gene and purified or assayed from a whole cell extract. These methods can be used to determine the concentration of the disclosed compounds can inhibit fifty percent of the enzyme activity (IC50).

SMILES | pIC50
O=C(N[C@@H](COCCN[C@@H]1C[C@H]1c1ccc(F)cc1)C(=O)N1CCOCC1)c1ccc(F)cc1 | > 6.00
COc1ccc([C@@H]2C[C@H]2NC(=O)COC[C@H](NC(=O)c2ccc(F)cc2)C(=O)N2CCOCC2)cc1 | < 6.00
